Source: patent US5480869A, “Anti-inflammatory peptide analogs and treatment to inhibit vascular leakage in injured tissues” (The Regents of the University of California, priority 1993, dated 1996)
Several values for one entry are separate records, joined by “and”; a condition that tells them apart may be missing. Identical values can stand only once. Where a SMILES comes first, the peptide text is derived from it. [ ]: non-standard residue; d: D form.

System: rat's hind paw heat-edema
Assay: heat-induced paw edema in pentobarbital-anesthetized rat (58° C. water, 1 minute)
Type: in vivo
Details: for Heat-Edema % Saline Values: ten minutes before 58° C. water for 1 minute, edema measured 30 minutes after heat; for anti-inflammatory activity, result in words: heat-edema, relative to saline controls
Procedure: The inventive peptides were dissolved either in saline or saline acidified with 0.1 M acetic acid and injected intravenously into a pentobarbital-anesthetized rat. The rat's hind paw was then immersed in 58°-60° C. water for 1 minute and the increase in paw weight, as an index of edema and swelling, was measured 30 minutes later. For some peptides, the ability of the substances to inhibit vascular leakage after muscle injury was also tested. Normally, the paw weight of saline-treated animals (controls) will increase by about 65-95% after heat injury. The increase in weight is relative to the contralateral non-heated paw.
In screening the bioactivity of new peptides, a dose of 5 mg/kg i.v. was initially used. In later studies, when greater activity was expected, a screening dose of 1 to 2 mg/kg i.v. was used.
Thus, each peptide was injected intravenously (at the amounts specified, usually 1 or 5 mg/kg, or by full dose-response analysis) 10 minutes (for 7/8-mers) or one hour (for 11-mers) before immersion of the right paw in 58° C. water, for 1 minute, and weights of both paws were obtained 30minutes later. To obtain statistical accuracy, four to six animals were used in each group. The % wt increase was calculated as (wt of heated paw--wt of unheated paw/wt of unheated paw)×100 and converted to % of the saline control group values, which were run concurrently.

[1] = dose 5 mg/kg i.v., N.S. = not different from saline
[2] = i.y. [sic], 7/8-mers, ten minute interval between administration and 58° C. water for 1 minute, edema 30 minutes after heat, Table 3

Compound	Heat-Edema % Saline Values [1] [% Saline Values]	ED50 (95% confidence limits) [2]	other results
1ATyRKLL(β-thienyl-D--Ala)Il-NH2			ED50 (95% confidence limits) (i.v., 11-mers, injected one hour before 58° C. water for 1 minute, paw weight 30 minutes later, Table 1): 0.015 (0.006-0.036) mg/kg
CC[C@H](C)[C@H](NC(=O)[C@H](Cc1ccc(O)cc1)NC(=O)[C@H](CCSC)NC(=O)[C@H](CC(C)C)NC(=O)[C@H](CCCCN)NC(=O)[C@@H](N)CCCNC(=N)N)C(=O)N[C@H](CC(C)C)C(N)=O [Composition 5] (HELM PEPTIDE1{R.K.L.M.Y.I.[dL].[am]}$$$$V2.0)	70 ± 9		
CC[C@H](C)[C@H](NC(=O)[C@H](CC(C)C)NC(=O)[C@H](CCSC)NC(=O)[C@H](CC(C)C)NC(=O)[C@H](CCCCN)NC(=O)[C@@H](N)CCCNC(=N)N)C(=O)N[C@H](CC(C)C)C(N)=O [Composition 6] (HELM PEPTIDE1{R.K.L.M.L.I.[dL].[am]}$$$$V2.0)	67 ± 10		
CC[C@H](C)[C@H](NC(=O)[C@H](Cc1c[nH]c2ccccc12)NC(=O)[C@H](CCSC)NC(=O)[C@H](CC(C)C)NC(=O)[C@H](CCCCN)NC(=O)[C@@H](N)CCCNC(=N)N)C(=O)N[C@H](CC(C)C)C(N)=O [Composition 7] (HELM PEPTIDE1{R.K.L.M.W.I.[dL].[am]}$$$$V2.0)	38 ± 5		
CC[C@H](C)[C@H](NC(=O)[C@H](CCCCN)NC(=O)[C@H](CC(C)C)NC(=O)[C@H](CC(C)C)NC(=O)[C@H](CCCCN)NC(=O)[C@@H](N)CCCNC(=N)N)C(=O)N[C@H](CC(C)C)C(N)=O [Composition 8] (HELM PEPTIDE1{R.K.L.L.K.I.[dL].[am]}$$$$V2.0)	38 ± 10		
CC[C@H](C)[C@H](NC(=O)[C@H](CCCNC(=N)N)NC(=O)[C@H](CC(C)C)NC(=O)[C@H](CC(C)C)NC(=O)[C@H](CCCCN)NC(=O)[C@@H](N)CCCNC(=N)N)C(=O)N[C@H](CC(C)C)C(N)=O [Composition 9] (HELM PEPTIDE1{R.K.L.L.R.I.[dL].[am]}$$$$V2.0)	18 ± 3		
CC[C@H](C)[C@H](NC(=O)[C@H](Cc1ccc(F)cc1)NC(=O)[C@H](CC(C)C)NC(=O)[C@H](CC(C)C)NC(=O)[C@H](CCCCN)NC(=O)[C@@H](N)CCCNC(=N)N)C(=O)N[C@H](CC(C)C)C(N)=O [Composition 10] (HELM PEPTIDE1{R.K.L.L.[O=C([C@H](Cc1ccc(F)cc1)N[*:1])[*:2]].I.[dL].[am]}$$$$V2.0)	54 ± 11		
CC[C@H](C)[C@H](NC(=O)[C@H](Cc1ccc(I)cc1)NC(=O)[C@H](CC(C)C)NC(=O)[C@H](CC(C)C)NC(=O)[C@H](CCCCN)NC(=O)[C@@H](N)CCCNC(=N)N)C(=O)N[C@H](CC(C)C)C(N)=O [Composition 11] (HELM PEPTIDE1{R.K.L.L.[O=C([C@H](Cc1ccc(I)cc1)N[*:1])[*:2]].I.[dL].[am]}$$$$V2.0)	49 ± 6		
CC[C@H](C)[C@H](NC(=O)[C@H](Cc1ccc([N+](=O)[O-])cc1)NC(=O)[C@H](CC(C)C)NC(=O)[C@H](CC(C)C)NC(=O)[C@H](CCCCN)NC(=O)[C@@H](N)CCCNC(=N)N)C(=O)N[C@H](CC(C)C)C(N)=O [Composition 12] (HELM PEPTIDE1{R.K.L.L.[O=C([C@H](Cc1ccc([N+](=O)[O-])cc1)N[*:1])[*:2]].I.[dL].[am]}$$$$V2.0)	41 ± 6		
CC[C@H](C)[C@H](NC(=O)[C@H](Cc1ccc(Cl)cc1)NC(=O)[C@H](CC(C)C)NC(=O)[C@H](CC(C)C)NC(=O)[C@H](CCCCN)NC(=O)[C@@H](N)CCCNC(=N)N)C(=O)N[C@H](CC(C)C)C(N)=O [Composition 13] (HELM PEPTIDE1{R.K.L.L.[O=C([C@H](Cc1ccc(Cl)cc1)N[*:1])[*:2]].I.[dL].[am]}$$$$V2.0)			Heat-Edema % Saline Values (dose 5 mg/kg i.v., N.S. = not different from saline, 5 mg/kg): 15 ± 5 % Saline Values and 15 % Saline Values
CC[C@H](C)[C@H](NC(=O)[C@H]1CCCN1C(=O)[C@H](CCSC)NC(=O)[C@H](CC(C)C)NC(=O)[C@H](CCCCN)NC(=O)[C@@H](N)CCCNC(=N)N)C(=O)N[C@H](CC(C)C)C(N)=O [Composition 14] (HELM PEPTIDE1{R.K.L.M.[dP].I.[dL].[am]}$$$$V2.0)			Heat-Edema % Saline Values (dose 2 mg/kg i.v.): 21 ± 3 % Saline Values
CC[C@H](C)[C@H](NC(=O)[C@H](Cc1ccc(OC)cc1)NC(=O)[C@H](CCSC)NC(=O)[C@H](CC(C)C)NC(=O)[C@H](CCCCN)NC(=O)[C@@H](CCCCN)NC(C)=O)C(=O)N[C@H](CC(C)C)C(N)=O [Composition 16] (Ac-[dK]KLMY(Me)I[dL]-NH2)			Heat-Edema % Saline Values (dose 2 mg/kg i.v.): 67 ± 11 % Saline Values; anti-inflammatory activity, result in words: retention of activity
CC[C@H](C)[C@H](NC(=O)[C@H](Cc1ccc(OC)cc1)NC(=O)[C@@H](NC(=O)[C@H](CC(C)C)NC(=O)[C@H](CCCCN)NC(=O)[C@H](CCCNC(=N)N)NC(C)=O)C(C)C)C(=O)N[C@H](CC(C)C)C(N)=O [Composition 17] (Ac-RKLVY(Me)I[dL]-NH2)			Heat-Edema % Saline Values (dose 2 mg/kg i.v.): 49 ± 9 % Saline Values; anti-inflammatory activity, result in words: retains activity, albeit at a lower potency
CC[C@H](C)[C@H](NC(=O)[C@H](Cc1ccc(OC)cc1)NC(=O)[C@H](CCSC)NC(=O)[C@H](CC(C)C)NC(=O)[C@H](CCCCN)NC(=O)[C@H](CCCNC(=N)N)NC(C)=O)C(=O)N[C@H](CC(C)C)C(N)=O [Composition 18] (Ac-RKLMY(Me)I[dL]-NH2)			Heat-Edema % Saline Values (dose 2 mg/kg i.v.): 27 ± 1 % Saline Values
CC[C@H](C)[C@H](NC(=O)[C@@H](CCCCN)NC(=O)[C@H](CC(C)C)NC(=O)[C@H](CC(C)C)NC(=O)[C@H](CCCCN)NC(=O)[C@H](CCCNC(=N)N)NC(C)=O)C(=O)N[C@H](CC(C)C)C(N)=O [Composition 19] (HELM PEPTIDE1{[ac].R.K.L.L.[dK].I.[dL].[am]}$$$$V2.0)			Heat-Edema % Saline Values (dose 1 mg/kg i.v.): 23 ± 8 % Saline Values
CC[C@H](C)[C@H](NC(=O)[C@@H](Cc1c[nH]cn1)NC(=O)[C@H](CC(C)C)NC(=O)[C@H](CC(C)C)NC(=O)[C@H](CCCCN)NC(=O)[C@@H](N)CCCNC(=N)N)C(=O)N[C@H](CC(C)C)C(N)=O [Composition 20] (HELM PEPTIDE1{R.K.L.L.[dH].I.[dL].[am]}$$$$V2.0)		2.3 (1.2-4.2) mg/kg	
CC[C@H](C)[C@H](NC(=O)[C@@H](CCCNC(=N)N)NC(=O)[C@H](CC(C)C)NC(=O)[C@H](CC(C)C)NC(=O)[C@H](CCCCN)NC(=O)[C@@H](N)CCCNC(=N)N)C(=O)N[C@H](CC(C)C)C(N)=O [Composition 21] (HELM PEPTIDE1{R.K.L.L.[dR].I.[dL].[am]}$$$$V2.0)		2.0 (0.80-5.0) mg/kg	
CC[C@H](C)[C@H](NC(=O)[C@@H](CC(C)C)NC(=O)[C@H](CC(C)C)NC(=O)[C@H](CC(C)C)NC(=O)[C@H](CCCCN)NC(=O)[C@@H](N)CCCNC(=N)N)C(=O)N[C@H](CC(C)C)C(N)=O [Composition 23] (HELM PEPTIDE1{R.K.L.L.[dL].I.[dL].[am]}$$$$V2.0)		1.3 (0.50-3.6) mg/kg	
CC[C@H](C)[C@H](NC(=O)[C@@H](Cc1c[nH]c2ccccc12)NC(=O)[C@H](CC(C)C)NC(=O)[C@H](CC(C)C)NC(=O)[C@H](CCCCN)NC(=O)[C@@H](N)CCCNC(=N)N)C(=O)N[C@H](CC(C)C)C(N)=O [Composition 24] (HELM PEPTIDE1{R.K.L.L.[dW].I.[dL].[am]}$$$$V2.0)		0.82 (0.56-1.2) mg/kg	
CC[C@H](C)[C@H](NC(=O)[C@H](Cc1ccc(OC)cc1)NC(=O)[C@H](CCSC)NC(=O)[C@H](CC(C)C)NC(=O)[C@H](CCCCN)NC(=O)[C@H](CCCNC(=N)N)NC(C)=O)C(=O)N[C@@H](C(N)=O)C(C)C [Composition 25] (Ac-RKLMY(Me)I[dV]-NH2)		1.0 (0.52-1.9) mg/kg	anti-inflammatory activity, result in words: retains activity
CC[C@H](C)[C@H](NC(=O)[C@H](CCCNC(=N)N)NC(=O)[C@H](CCCNC(=N)N)NC(C)=O)C(=O)N[C@H](C(=O)N[C@@H](Cc1ccc(OC)cc1)C(=O)N[C@H](C(=O)N[C@H](CC(C)C)C(N)=O)[C@@H](C)CC)[C@@H](C)CC [Composition 26] (Ac-RRIIY(Me)I[dL]-NH2)		0.70 (0.40-1.2) mg/kg	anti-inflammatory activity, result in words: potent anti-inflammatory properties
CC[C@H](C)[C@H](NC(=O)[C@H](Cc1ccc(OC)cc1)NC(=O)[C@H](CCSC)NC(=O)[C@H](CC(C)C)NC(=O)[C@H](CCCCN)NC(=O)[C@@H](CCCNC(=N)N)NC(C)=O)C(=O)N[C@H](CC(C)C)C(N)=O [Composition 27] (Ac-[dR]KLMY(Me)I[dL]-NH2)		0.52 (0.19-1.8) mg/kg	
CC[C@H](C)[C@H](NC(=O)[C@H](Cc1ccc(OC)cc1)NC(=O)[C@H](CCSC)NC(=O)[C@H](CC(C)C)NC(=O)[C@H](CCCCN)NC(=O)[C@H](CCCNC(=N)N)NC(=O)[C@H](Cc1ccc(OC)cc1)NC(C)=O)C(=O)N[C@H](CC(C)C)C(N)=O [Composition 29] (Ac-Y(Me)RKLMY(Me)I[dL]-NH2)		0.22 (0.09-0.55) mg/kg	
